From PubChem BioAssay AID624167 (Sanford-Burnham Center for Chemical Genomics, 2012)
Activity calls are given as the source filed them.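 The calls were made as follows: active = mean IC50 for reducing PEG3 promoter reporter signal at or below a set limit, with IC50 above the limit in both counter screens; inactive = the rest, including counter screen hits.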

Key:
[1] = Peg3 promoter luciferase inhibitors, potency, dose response, cell-based, HeLa, CREF/GAPDH counter-screen panel (AID 624167); settings: CREF/GAPDH counter-screens; GAPDH; mean of runs
[2] = test system: GAPDH; assay: as above; settings: CREF/GAPDH counter-screens
[3] = target: PEG-3 (UniProt Q6IN02); assay: as above; settings: HeLa PEG-Prom luciferase reporter, overnight, CREF/GAPDH counter-screens, mean of runs
Sequence of PEG-3 (UniProt Q6IN02) (Q6IN02 whole entry, looked up): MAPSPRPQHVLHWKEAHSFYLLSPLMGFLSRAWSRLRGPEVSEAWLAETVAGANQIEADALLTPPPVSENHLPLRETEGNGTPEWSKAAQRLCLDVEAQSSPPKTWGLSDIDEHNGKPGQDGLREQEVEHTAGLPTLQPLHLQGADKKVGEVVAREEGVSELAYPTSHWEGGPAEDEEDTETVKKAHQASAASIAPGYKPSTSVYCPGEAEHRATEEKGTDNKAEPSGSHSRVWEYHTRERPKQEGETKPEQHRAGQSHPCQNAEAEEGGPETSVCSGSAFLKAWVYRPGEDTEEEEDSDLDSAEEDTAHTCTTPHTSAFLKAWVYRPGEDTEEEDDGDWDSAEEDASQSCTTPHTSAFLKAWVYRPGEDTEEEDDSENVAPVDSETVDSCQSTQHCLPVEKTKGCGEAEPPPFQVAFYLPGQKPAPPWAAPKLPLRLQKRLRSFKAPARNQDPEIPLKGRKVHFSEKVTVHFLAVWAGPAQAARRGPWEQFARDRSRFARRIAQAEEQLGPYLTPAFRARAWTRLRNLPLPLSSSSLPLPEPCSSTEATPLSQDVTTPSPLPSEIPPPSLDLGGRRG

[4] = test system: PEG-3; assay: as above; settings: HeLa PEG-Prom luciferase reporter, overnight, CREF/GAPDH counter-screens
[5] = test system: Rat fibroblasts (CREF); assay: as above; settings: CREF/GAPDH counter-screens
[6] = run 1, dose range 1, individual replicate IC50 per panel
[7] = run 2, dose range 1, individual replicate IC50 per panel

Row | Compound | IC50 [1] | IC50 [2, 6] [µM] | IC50 [2, 7] [µM] | IC50 [3] | IC50 [4, 6] [µM] | IC50 [4, 7] [µM] | IC50 ([5]; mean of runs) | IC50 [5, 6] [µM] | IC50 [5, 7] [µM]
1 | CC(=O)OC1(C)CC(C)C(=O)C(C(O)CC2CC(=O)NC(=O)C2)C1 (centres undefined) | < 0.2 µM | < 0.2 | < 0.2 | 0.303 µM | 0.221 | 0.385 | < 0.2 µM | < 0.2 | < 0.2
2 | CCCC(=O)NC(c1ccc(C)cc1)c1ccc2cccnc2c1O (centres undefined) | inactive | > 100 | 74.7 | 5.94 µM | 4.69 | 7.19 | > 100 µM (inactive) | > 100 | > 100
3 | COc1ccc(-n2cc(-c3ccccc3)c3c(N4CCOCC4)ncnc32)cc1 | 21.4 µM | 21.3 | 21.4 | 10.3 µM | 12.1 | 8.51 | 68.5 µM (inactive) | 66.9 | 70.1
4 | O=C(N/N=C\c1c(O)ccc2ccccc12)c1ccc(Cn2cccn2)o1 | > 100 µM (inactive) | > 100 | > 100 | 6.22 µM | 3.09 | 9.35 | > 100 µM (inactive) | > 100 | > 100
5 | Cc1ccc(-n2c(N)c(C(=O)Nc3c(C)n(C)n(-c4ccccc4)c3=O)c3nc4ccccc4nc32)cc1 | 27.5 µM | 26.6 | 28.5 | 7.52 µM | 9.84 | 5.21 | 43.3 µM | 37.1 | 49.4
6 | CCCCCCN1C=C/C(=C\C=C(C#N)C#N)c2ccccc21 | inactive | 1.24 | > 100 | 10.2 µM | 13.4 | 7.03 | 55.3 µM (inactive) | > 100 | 10.7
7 | O=[N+]([O-])c1ccc(S(=O)(=O)c2ccccc2)nc1 | inactive | 33.8 | 29.1 | 9 µM | 9.44 | 8.56 | 54.4 µM (inactive) | 8.84 | > 100
8 | CC(=O)NC(c1ccc(Cl)cc1)c1ccc2cccnc2c1O (centres undefined) | inactive | 58.8 | 56 | 1.75 µM | 1.47 | 2.04 | > 100 µM (inactive) | > 100 | > 100
9 | C/C(=N\NC(=O)c1c(C)nc2ccccn12)c1ccc(O)cc1O | > 100 µM (inactive) | > 100 | > 100 | 0.922 µM | 1.31 | 0.534 | 62.8 µM (inactive) | > 100 | 25.5
10 | C(=N\Nc1ccc2ccccc2n1)/c1ccc2c(c1)OCCO2 | 3.75 µM | 6.78 | 0.719 | 6.99 µM | 5.86 | 8.13 | 51.2 µM (inactive) | 2.43 | > 100
11 | CC1=CC2C(C(O)CC3(C)C2CC(C)C32OCOC23COCO3)C2(C)C/C(=C\O)C(=O)C=C12 (centres undefined) | 9.16 µM | 7.69 | 10.6 | 6.07 µM | 7.13 | 5.01 | 8.5 µM | 7.69 | 9.3
12 | CC1=CC2/C=C(\C)CCC(O)C(O)/C=C/C(=O)C23C(=O)NC(CC(C)C)C3C1C (centres undefined) | 7.88 µM | 9.17 | 6.59 | 4.78 µM | 5.76 | 3.79 | 14.3 µM | 20.1 | 8.55
13 | O=C(Nc1ccc(Cc2ccncc2)cc1)c1ccc([N+](=O)[O-])o1 | inactive | 56.6 | 63.3 | 10.5 µM | 13.2 | 7.69 | 14.2 µM | 14 | 14.3
14 | CCCC(=O)NC(c1ccc(C(C)C)cc1)c1ccc2cccnc2c1O (centres undefined) | inactive | 26.2 | 85.1 | 1.38 µM | 1.94 | 0.814 | > 100 µM (inactive) | > 100 | > 100
15 | CC1CC(C)C(=O)C(C(CC2CC(=O)NC(=O)C2)OC(=O)CC(=O)c2ccccc2)C1 (centres undefined) | 1.01 µM | 0.605 | 1.42 | 1.16 µM | 1.78 | 0.549 | > 100 µM (inactive) | > 100 | > 100
16 | CS(=O)(=O)c1ccc(-c2cn3cc(C(=O)O)ccc3n2)cc1 | 27.6 µM | 24.6 | 30.5 | 10.2 µM | 6.91 | 13.4 | 42.9 µM | 42.3 | 43.4

Row | Compound | IC50 [1] | IC50 [2, 6] [µM] | IC50 [2, 7] [µM] | IC50 [3] | IC50 [4, 6] [µM] | IC50 [4, 7] [µM] | IC50 ([5]; mean of runs) | IC50 [5, 6] [µM] | IC50 [5, 7] [µM]
17 | Cc1cc(Br)ccc1NC(=O)CNC(=O)Cn1ncc(Cl)c(Cl)c1=O | 10.9 µM | 10.1 | 11.8 | 6.59 µM | 8.31 | 4.87 | 54.2 µM (inactive) | 8.5 | > 100
18 | NS(=O)(=O)c1ccc(CCNc2nn3c(-c4ccc(F)c(Cl)c4)cnc3s2)cc1 | 14.1 µM | 12.9 | 15.3 | 2.67 µM | 2.86 | 2.47 | > 100 µM (inactive) | > 100 | > 100
19 | COc1cc(/C=C2\SC(=Nc3ccccc3OC)NC2=O)ccc1O | > 100 µM (inactive) | > 100 | > 100 | inactive | 4.7 | > 100 | > 100 µM (inactive) | > 100 | > 100
20 | N=c1n(CC(=O)c2ccc([N+](=O)[O-])cc2)c2ccccc2n1Cc1ccc(Cl)cc1 | inactive | > 80 | 33.3 | 9.2 µM | 9.65 | 8.76 | 27 µM | 26.4 | 27.6
21 | Clc1ccccc1/C=C/c1nc(-c2ccccn2)no1 | 1.86 µM | 3.51 | < 0.2 | inactive | 3.68 | > 100 | 28 µM | 25.7 | 30.3
22 | C/C(=N\NC(=O)c1cc(C2CC2)nc2ccccc12)c1ccc(O)cc1O | > 100 µM (inactive) | > 100 | > 100 | 3.26 µM | 3.07 | 3.45 | 60.7 µM (inactive) | 21.5 | > 100
23 | Cc1nc(C)c(C(=O)N/N=C/c2cc(Br)ccc2O)s1 | > 100 µM (inactive) | > 100 | > 100 | inactive | 5.65 | > 100 | 64.9 µM (inactive) | 52.3 | 77.5
24 | COc1ccc(N(C(=O)CCl)C(C(=O)NC2CCCCC2)c2cccnc2)cc1 (centres undefined) | inactive | 40.4 | 39.6 | 8.05 µM | 6.62 | 9.49 | 2.68 µM | 2.81 | 2.56
25 | CCN(CC)S(=O)(=O)c1cccc(C(=O)N/N=C(\C)c2ccc(O)cc2O)c1 | > 100 µM (inactive) | > 100 | > 100 | 2.05 µM | 2.77 | 1.33 | 74.1 µM (inactive) | > 100 | 48.2
26 | COCCCNC(=O)c1ccc(Cn2c(=O)c3ccccc3n(Cc3ccccc3C#N)c2=O)cc1 | > 100 µM (inactive) | > 100 | > 100 | 4.18 µM | 4.1 | 4.27 | > 100 µM (inactive) | > 100 | > 100
27 | CN(C)CC1CCC/C(=C\c2ccc(OC(=O)c3ccc(Cl)cc3)cc2)C1=O (centres undefined) | inactive | 49.8 | 57.7 | 5.81 µM | 6.76 | 4.86 | > 100 µM (inactive) | > 100 | > 100
28 | O=C(CCn1cnc(-c2ccccc2)c1-c1ccccc1)N/N=C/c1ccccc1O | inactive | 49.7 | > 100 | 5.13 µM | 5.32 | 4.93 | 63.2 µM (inactive) | > 100 | 26.4
29 | O=C1C=CC(=O)N1c1ccc(-c2nc3ccccc3o2)cc1 | inactive | 41.6 | 35.3 | 9.67 µM | 11.3 | 8.02 | 12.8 µM | 5.55 | 20
30 | COc1cc2nc(CN3CC=C(c4ccccc4)CC3)[nH]c(=O)c2cc1OC | inactive | 60.9 | 62.2 | 6.47 µM | 7.71 | 5.22 | > 100 µM (inactive) | > 100 | > 100
31 | Cc1cccc(OCC(=O)NCC(=O)N/N=C/c2cc(Br)cc(Br)c2O)c1 | > 100 µM (inactive) | > 100 | > 100 | 7.91 µM | 9.95 | 5.87 | 47.1 µM | 42.2 | 52
